In experiment [1] the test system is MCF7. The experiment can be described thus: Cytotoxicity against human MCF7 cells after 48 hrs by MTT assay. Type of experiment: functional, cell-based. The following applies: MCF7, 48 h. (Tetrazolium dyes change colour on reduction, which living cells bring about.)
Experiment [2] is described as follows: Inhibition of bovine brain tubulin polymerization after 20 mins. Set-up: species or system Bos taurus.
In experiment [3] the test system is MCF7. Nature of the experiment: Cell cycle arrest in human MCF7 cells assessed as accumulation at S phase at 25 nM after 24 hrs by flow cytometry. Type of experiment: functional. For orientation: A flow cytometer gives signals particle by particle.
Experiment [4] deals with MCF7. Nature of the experiment: Cell cycle arrest in human MCF7 cells assessed as accumulation at G2/M phase at 25 nM after 24 hrs by flow cytometry. Format: functional.
Experiment [5] concerns MCF7. Nature of the experiment: Cell cycle arrest in human MCF7 cells assessed as accumulation at G1 phase at 25 nM after 24 hrs by flow cytometry. Format: functional.
The subject of experiment [6] is MCF7. Nature of the experiment: Cell cycle arrest in human MCF7 cells assessed as accumulation at G1 phase at 250 nM after 24 hrs by flow cytometry. Type of experiment: functional.
Experiment [7] concerns MCF7. The experiment can be described thus: Cell cycle arrest in human MCF7 cells assessed as accumulation at S phase at 250 nM after 24 hrs by flow cytometry. Type of experiment: functional.
The test system of experiment [8] is MCF7. Nature of the experiment: Cell cycle arrest in human MCF7 cells assessed as accumulation at G2/M phase at 250 nM after 24 hrs by flow cytometry. Type of experiment: functional.

For 22 molecules, IC50 and Activity results are on record in ChEMBL document CHEMBL1165975, “Synthesis, molecular modeling and biological evaluation of dithiocarbamates as novel antitubulin agents” (Bioorg Med Chem, 2010).

Structures are written as SMILES.

As a reminder, the IC50 is the point on the concentration scale where inhibition reaches its midpoint. Consider `CCN(CC)C(=S)SC(CC(=O)c1ccccc1)c1ccc(OC)cc1` (configuration not stated), for which the results for the IC50 (in the experiment with MCF7 [1]; in experiment [2]) were 4.6 µM and 45 µM, respectively.

Consider `CCN(CC)C(=S)SC(CC(=O)c1ccccc1)c1ccc(Br)cc1` (configuration not stated), for which the 50% inhibitory concentration (IC50) turned out to be 0.08 µM in the experiment on MCF7 [1] and 12 µM in experiment [2].

For `CCN(CC)C(=S)SC(CC(=O)c1ccccc1)c1ccc(Cl)cc1` (configuration not stated), the concentration for half-maximal inhibition (IC50) came to 0.12 µM in the experiment on MCF7 [1] and 15 µM in experiment [2].

Consider `COc1cc2c(c(OC)c1OC)-c1ccc(OC)c(=O)cc1[C@@H](NC(C)=O)CC2` [COLCHICINE], for which the IC50 in the experiment with MCF7 [1] was 0.017 µM; in experiment [2] it was 3.2 µM. The Activity in the experiment with MCF7 [3] was 15.96%; with MCF7 [4] it was 32.28%; in the experiment with MCF7 [5] it was 24.31%.

Regarding `CCN(CC)C(=S)SC(CC(=O)c1ccccc1)c1ccccc1OC` (configuration not stated), the half-maximal inhibitory concentration (IC50) with MCF7 [1] was found to be 16 µM; in experiment [2] it was 150 µM.

Take `CCN(CC)C(=S)SC(CC(=O)c1ccc(OC)cc1)c1ccc(Cl)cc1` (configuration not stated): the IC50 in the experiment on MCF7 [1] was determined as 16 µM; in experiment [2], 140 µM.

For `CCN(CC)C(=S)SC(CC(C)=O)c1ccccc1` (configuration not stated), the IC50 in the experiment with MCF7 [1] came out at 23 µM; in experiment [2], 250 µM.

For the molecule `CCN(CC)C(=S)SC(CC(=O)c1ccccc1)c1ccccc1Cl` (configuration not stated), the results for the IC50 (with MCF7 [1]; in experiment [2]) were 4.5 µM and 52 µM, respectively.

Consider `CCN(CC)C(=S)SC(CC(=O)c1ccc(Br)cc1)c1ccccc1` (configuration not stated), for which the results for the IC50 (in the experiment with MCF7 [1]; in experiment [2]) were 5 µM and 65 µM, respectively.

As to `CCN(CC)C(=S)SC(CC(=O)c1ccc(Br)cc1)c1ccc(F)cc1` (configuration not stated), the results for the half-maximal inhibitory concentration (IC50) (in the experiment with MCF7 [1]; in experiment [2]) were 1 µM and 18 µM, respectively.

As to `CCN(CC)C(=S)SC(CC(=O)c1ccc(OC)cc1)c1ccccc1Cl` (configuration not stated), the values for the half-maximal inhibitory concentration (IC50) (in the experiment on MCF7 [1]; in experiment [2]) were 0.07 µM and 10 µM, respectively.

Molecule `COc1ccc(/C=C\c2cc(OC)c(OC)c(OC)c2)cc1O` [COMBRETASTATIN A4] yielded an IC50 in experiment [2] of 2.2 µM. This lies in the single-digit micromolar range.

As for `CCN(CC)C(=S)SC(CC(=O)c1ccc(Cl)c(Cl)c1)c1ccccc1` (configuration not stated), the IC50 in the experiment with MCF7 [1] stood at 4.5 µM; in experiment [2], 60 µM.

Take `CCN(CC)C(=S)SC(CC(=O)c1ccc(Cl)cc1)c1ccccc1` (configuration not stated): the Activity is given as 12.86% in the experiment on MCF7 [6]; 16.28% in the experiment with MCF7 [3]; 12.22% with MCF7 [7]; 19.99% with MCF7 [4]; 39.54% in the experiment with MCF7 [8]; 50.86% in the experiment with MCF7 [5]. In addition, the results for the IC50 (in the experiment with MCF7 [1]; in experiment [2]) were 0.04 µM and 6.8 µM, respectively.

Regarding `CCN(CC)C(=S)SC(CC(=O)c1ccccc1)c1cccc([N+](=O)[O-])c1` (configuration not stated), the figures for the IC50 (in the experiment on MCF7 [1]; in experiment [2]) were 9 µM and 90 µM, respectively.

As to `CCN(CC)C(=S)SC(CC(=O)c1ccc(OC)cc1)c1ccccc1` (configuration not stated), the concentration for half-maximal inhibition (IC50) in the experiment with MCF7 [1] turned out to be 4.5 µM; in experiment [2], 62 µM.

As to `CCN(CC)C(=S)SC(CC(=O)c1ccc(OC)cc1)c1ccc(C)cc1` (configuration not stated), the concentration for half-maximal inhibition (IC50) came out at 17 µM in the experiment with MCF7 [1] and 180 µM in experiment [2].

Turning to `CCN(CC)C(=S)SC(CC(=O)c1ccccc1)c1ccccc1` (configuration not stated), the IC50 in the experiment with MCF7 [1] came out at 17 µM; in experiment [2] it was 130 µM.

On to `CCN(CC)C(=S)SC(CC(=O)c1ccc(OC)cc1)c1ccc(OC)cc1` (configuration not stated), for which the concentration for half-maximal inhibition (IC50) in the experiment on MCF7 [1] stood at 0.8 µM; in experiment [2] it was 84 µM.

Turning to `CCN(CC)C(=S)SC(CC(=O)c1ccc(Br)cc1)c1ccc(OC)cc1` (configuration not stated), the IC50 turned out to be 5 µM with MCF7 [1] and 52 µM in experiment [2].

Regarding `CCN(CC)C(=S)SC(CC(=O)c1ccccc1)c1ccc(F)cc1` (configuration not stated), the IC50 in the experiment with MCF7 [1] turned out to be 0.7 µM; in experiment [2] it was 80 µM.

In the case of `CCN(CC)C(=S)SC(CC(=O)c1ccccc1)c1ccc(C)cc1` (configuration not stated), the 50% inhibitory concentration (IC50) with MCF7 [1] worked out at 20 µM; in experiment [2], 220 µM.
